Assays:
Urinary KIM-1 = Urinary KIM-1 kidney injury in rats given vancomycin and/or protamine; conditions: for Contrast KIM-1: urinary KIM-1, vancomycin 150 mg/kg i.v., protamine sulfate 1.5 mg/kg i.v.
Protocol: Male Sprague-Dawley rats (n = 19; age 8–10 weeks; 268–304 g; Envigo, Indianapolis, IN, USA) underwent double jugular catheterization ([33]) (Fig. 3A). Surgery was performed under ketamine (100 mg/kg of body weight) and xyalzine (10 mg/kg of body weight) anesthesia with buprenorphine (0.02 mg/kg of body weight) given post-operatively for pain management. Animals were allowed to recover 4 days before the administration of any drug. Animals were housed in metabolic cages starting 1 day prior to day 0 with access to food and water ad libitum for the duration of the study (Fig. 3B).
Animals were divided into three experimental treatment protocols. Using a dedicated jugular vein for dosing, the animals received clinical grade intravenous protamine and/or vancomycin in doses allometrically scaled to humans according to the following protocols: (i) protamine sulfate (1.5 mg/kg of body weight) and vancomycin (150 mg/kg of body weight) (n = 6); (ii) protamine only (1.5 mg/kg of body weight) with saline sham (sham for volume of vancomycin) (n = 7); or (iii) vancomycin only (150 mg/kg of body weight) with saline sham (sham for volume of protamine) (n = 6) ([34][–][36]). Saline sham was given to match the volumes of protamine and vancomycin doses to maintain euvolemia. On day 0, all animals received only iohexol (51.8 mg/day) intravenously to establish baseline GFR measurements. Drugs were administered as described above by treatment protocols to all groups on days 1–4. Infusion times for each of the drugs include (i) protamine sulfate, 5 minutes; (ii) vancomycin and iohexol, 2 minutes; and (iii) saline sham, 5 or 2 minutes depending on what the sham was replacing.
Urine samples were collected daily, and volumes were measured starting from day 0 to day 4. Samples were centrifuged at 500 g for 10 minutes, and the resulting supernatant was aliquoted (1.5 mL) and stored at −80°C for renal biomarker analysis later.
Urinary samples were analyzed for KIM-1 using the Milliplex MAP Rat Kidney Toxicity Magnetic Bead Panel 1 (EMD Millipore Corporation, Charles, MO, USA) according to the manufacturer’s directions and as previously described ([34], [36], [37]). Briefly, neat urine aliquots were mixed with monoclonal antibody-coated magnetic microbeads (Bead Panel 1) and run on a 96-well plate, which also included a standard curve. Biomarker data were acquired, and concentrations were analyzed using Belysa Immunoassay Curve-Fitting Software V1 (MilliporeSigma, Darmstadt, Germany). The amount of urinary KIM-1 excreted over the 24-h collection period was obtained by multiplying the urinary concentration by 24-h urinary volume.
An omnibus test, i.e., joint tests (multi-degree of freedom) of the interaction and main effects, which is similar to the F test in ANOVA, was used initially (STATA 17.0 BE, StataCorp LLC, College Station, TX, USA). Only models with significant interaction at P < 0.05 were selected for post hoc analysis (i.e., identification of the difference between treatment groups and days). Margins were calculated for a full factorial of the variables, i.e., main effects for each variable and interactions. Referent groups were pre-treatment baseline values and protamine alone as a treatment, except where noted. […] LOWESS graphs were produced in R version 4.2.2 using ggplot2. […] All tests were two-tailed; a P < 0.05 was required for statistical significance. Graphs for cellular studies were generated using GraphPad version 9.3.1 and were fit with a log(inhibitor) vs normalized response function after log transformation.

megalin = test system: megalin; set-up: method as in Hori et al. ([18]); conditions: quartz crystal microbalance analysis; ref Hori et al. ([18]); cited from earlier work
Excerpt: Hori et al. ([18]) performed a study to evaluate the binding of megalin to vancomycin and cisplatin, as well as aminoglycosides and colistin. They utilized quartz crystal microbalance analysis to assess the dir ...

acute kidney injury = conditions: cited from earlier work
Excerpt: Vancomycin is one of the most widely used antibiotics within United States in-patient healthcare systems, accounting for 11.9% of all antibiotic use for inpatient antimicrobials (1,258 out of 10,612) in a 2015 hospital survey ([1]). As a tricyclic glycopeptide, it is primarily indicated for severe Gram-positive bacterial infections, including methicillin-resistant Staphylococcus aureus (MRSA) ([2]). For about 70 years now, vancomycin has remained a first-line antibiotic widely used and studied across people of all ages. Despite its efficacy in the treatment of MRSA infections, one common limit ... || In humans, VAN (creatinine defined) ([41]) occurs between an interquartile range of 6–13 days ([42]), and creatinine is known to lag behind GFR ([43]). Serum creatinine is the most commonly utilized biomarker to classify AKI in patients ([41], [44][–][46]); however, creatinine is non-sensitive, non-specific, and slowly reactive to kidney function as compared to GFR ([47]). GFR can drop 50% before changes in SCr are detected ([48][–][50]). As such, acute injuries from vancomycin take a median of 6 days to be detectable with creatinine alone ([51]). Therefore, this study focused on the pre-clini ... || Originally derived from salmon fish sperm (salmine), protamine is a highly positively charged protein consisting of 32 amino acids. Currently, it is widely used as an effective agent to neutralize heparin using electrostatic bonds made between the cationic arginine groups of protamine and the anionic heparin in a 1:1 ratio ([6]). Specifically, protamine shares binding sites with heparin (current target for FDA-approved use) and megalin ([30], [31]). On this note, a clinical limitation for the use of protamine arises for patients who require heparin infusions, such as post-diabetic foot infecti ...

[1] = within group, day 2 vs 1 (baseline)
[2] = within group, day 3 vs 1 (baseline)
[3] = within group, day 4 vs 1 (baseline)

CN[C@H](CC(C)C)C(=O)N[C@H]1C(=O)N[C@@H](CC(N)=O)C(=O)N[C@H]2C(=O)N[C@H]3C(=O)N[C@H](C(=O)N[C@H](C(=O)O)c4cc(O)cc(O)c4-c4cc3ccc4O)[C@H](O)c3ccc(c(Cl)c3)Oc3cc2cc(c3O[C@@H]2O[C@H](CO)[C@@H](O)[C@H](O)[C@H]2O[C@H]2C[C@](C)(N)[C@H](O)[C@H](C)O2)Oc2ccc(cc2Cl)[C@H]1O [Vancomycin]
KIM-1 compared to protamine alone (in words) (Urinary KIM-1; day 2, 24 h after drug administration): significantly increased urinary KIM-1
KIM-1 change from baseline of day 1 (in words) (Urinary KIM-1; each animal group compared to itself, 4 days): elevated KIM-1 on days 2 and 3
Contrast KIM-1 (Urinary KIM-1; vs protamine alone, day 1 (prior to any drug), n = 6-7): 0.72 ng/24 h
Contrast KIM-1 (Urinary KIM-1; vs protamine alone, day 2 (24 h after drug administration)): 24.92 ng/24 h
Contrast KIM-1 (Urinary KIM-1; vs protamine alone, day 2 (24 h after drug administration), listed as vancomycin): 24.9 ng/24 h
Contrast KIM-1 (Urinary KIM-1; vs protamine alone, day 3): 20.88 ng/24 h
Contrast KIM-1 (Urinary KIM-1; vs protamine alone, day 4): 9.00 ng/24 h
Contrast KIM-1 (Urinary KIM-1; [1]): 24.81 ng/24 h
Contrast KIM-1 (Urinary KIM-1; [2]): 20.50 ng/24 h
Contrast KIM-1 (Urinary KIM-1; [3]): 8.55 ng/24 h
95% confidence interval of contrast KIM-1 (Urinary KIM-1; vs protamine alone, day 1): (−22.3–23.8) ng/24 h
95% confidence interval of contrast KIM-1 (Urinary KIM-1; vs protamine alone, day 2): (1.9–48.0) ng/24 h
95% confidence interval of contrast KIM-1 (Urinary KIM-1; vs protamine alone, day 2, listed as vancomycin): 1.87–48.0 ng/24 h
95% confidence interval of contrast KIM-1 (Urinary KIM-1; vs protamine alone, day 3): (−2.2–43.9) ng/24 h
95% confidence interval of contrast KIM-1 (Urinary KIM-1; vs protamine alone, day 4): (−14.0–32.0) ng/24 h
95% confidence interval of contrast KIM-1 (Urinary KIM-1; [1]): (5.2–44.4) ng/24 h
95% confidence interval of contrast KIM-1 (Urinary KIM-1; [2]): (0.9–40.1) ng/24 h
95% confidence interval of contrast KIM-1 (Urinary KIM-1; [3]): (−11–28.1) ng/24 h
Direct binding to megalin (in words) (megalin): megalin is bound specifically
Time to VAN (creatinine defined), interquartile range (acute kidney injury; humans, after treatment initiation): 6 to 13 days
Median time for acute injury to be detectable with creatinine alone (acute kidney injury; humans): 6 days
Risk of AKI compared to other antibiotics (acute kidney injury; systematic review and meta-analysis): up to 2.5 times greater

Reference: publication PMC11823679, “Protamine protects against vancomycin-induced kidney injury” (Antimicrobial Agents and Chemotherapy, 2025)
